The SangsterLogP compilation

Row | Compound | logP
1 | O=C1OCCC1Oc1ccc(Oc2ccccc2)cc1 (centres undefined) | 1.32
2 | CC(NCc1ccccc1)=C1CCOC1=O | 2.21
3 | COc1ccc(CNC2CCOC2=O)cc1 (centres undefined) | 1.43
4 | O=C1OCCC1N1Cc2ccccc2C1 (centres undefined) | 1.2
5 | NC(=O)c1ccccc1OC1CCOC1=O (centres undefined) | 0.93
6 | O=C1OCCC1NCc1ccc(Cl)cc1 (centres undefined) | 1.97
7 | COc1cc2c(cc1OC)CN(C1CCOC1=O)CC2 (centres undefined) | 1.83
8 | O=C1OCCC1NCc1ccccc1C(F)(F)F (centres undefined) | 1.83
9 | COc1ccccc1N1CCN(C2CCOC2=O)CC1 (centres undefined) | 1.44
10 | O=C1OCCC1N1CCC(c2ccccc2)CC1 (centres undefined) | 2.43
11 | O=C(Cc1ccccc1)NC1CCOC1=O (centres undefined) | 0.8
12 | O=C1CC(N2CCN(c3ccccc3)CC2)CO1 (centres undefined) | 1.22
13 | CC(Nc1ccccc1)=C1CCOC1=O | 2.27
14 | O=C1OCCC1N1C(=O)c2ccccc2C1=O (centres undefined) | 1.11
15 | O=C1OCCC1N1CCN(c2ccc(F)cc2)CC1 (centres undefined) | 2.05
16 | O=C1OCCC1N1CCN(c2ccccc2)CC1 (centres undefined) | 1.65
17 | Cc1cccc(C)c1NC1CCOC1=O (centres undefined) | 1.39
18 | O=C1OCCC1NCc1ccccc1 (centres undefined) | 1.47
19 | O=C1OCCC1N1CCc2ccccc2C1 (centres undefined) | 1.6
20 | CC1CC(NCc2ccccc2)C(=O)O1 (centres undefined) | 1.76
21 | COc1ccc(CCNC(C)=C2CCOC2=O)cc1OC | 2.53
22 | COc1cc2c(cc1OC)C(c1ccccc1)N(C1CCOC1=O)CC2 (centres undefined) | 3.12
23 | O=C(NC1CCOC1=O)c1ccccc1 (centres undefined) | 0.84
24 | CC1CC(N2CCN(c3ccccc3)CC2)C(=O)O1 (centres undefined) | 1.56
25 | COc1ccc(N2CCN(C3CCOC3=O)CC2)cc1 (centres undefined) | 1.46
26 | O=C1OCCC1N1CCN(C(c2ccccc2)c2ccccc2)CC1 (centres undefined) | 3.28
27 | COc1ccc(Cl)cc1N1CCN(C2CCOC2=O)CC1 (centres undefined) | 1.18
28 | COc1cccc(N2CCN(C3CCOC3=O)CC2)c1 (centres undefined) | 2.29
29 | O=C1OCCC1N1CCN(c2cccc(C(F)(F)F)c2)CC1 (centres undefined) | 2.94
